Tested on: relapsed or refractory, rituximab-naive or -sensitive follicular B-cell NHL
Assay: Treatment free interval, Vc-R vs rituximab study, by biomarker
Format: in vivo, human
Design: Treatment Free Interval, Median: unit not given here
Excerpt: Non-Hodgkin lymphoma (NHL) encompasses several unique malignant lymphoid disease entities that vary in clinical behavior, morphologic appearance, immunologic, and molecular phenotype. […] A randomized, open-label, active-controlled, multicenter, multinational, prospective study to compare the efficacy and safety of the combination of bortezomib and rituximab (Vc-R) to single-agent rituximab in subjects who have relapsed or refractory, rituximab-naive or -sensitive follicular B-cell NHL was performed.
Subjects were centrally randomized to Treatment Groups A (Vc-R) or B (rituximab) in a 1:1 ratio taking into account the following stratification factors: • Follicular Lymphoma International Prognostic Index (FLIPI) score (low [0 or 1 factor], intermediate [2 factors], high [≧3 factors]); • Prior rituximab therapy (yes, no); • Time since last dose of anti-lymphoma therapy (≦1 year, >1 year); • Region (United States/Canada, European Union, Rest of World).
The following clinical endpoints were included in the analysis within each treatment group and an overall comparison was made with the biomarker-related endpoints: Progression-free survival, defined as the interval between the date of randomization and the date of progressive disease (PD) or death, whichever is first reported in the ITT population; overall survival; overall response rate (complete response [CR]+CR unconfirmed [CRu]+partial response [PR]); overall CR rate (CR+CRu); duration of response; time to next anti-lymphoma therapy; and treatment free interval.

[1] = P65 % NUCLEAR STAINING: 0, 1 Prior Line of Therapy, IRC Review
[2] = P65 % NUCLEAR STAINING: ≦5%, 2 Prior Lines of Therapy, IRC Review
[3] = P65 % NUCLEAR STAINING: ≦5%, 5 Prior Lines of Therapy, IRC Review
[4] = P65 % NUCLEAR STAINING: ≦5%, Prior Rituximab Therapy, IRC Review
[5] = P65 % NUCLEAR STAINING: ≦5%, ≦65 years old, IRC Review
[6] = P65 % POSITIVE CYTOPLASMIC SIGNAL: >90%, 1 Prior Line of Therapy, IRC Review
[7] = P65 % POSITIVE CYTOPLASMIC SIGNAL: >90%, No Subgroup, IRC Review
[8] = P65 % POSITIVE CYTOPLASMIC SIGNAL: >90%, White, IRC Review
[9] = P65 % POSITIVE CYTOPLASMIC SIGNAL: >90%, ≦65 years old, IRC Review
[10] = P65 INTENSITY CYTOPLASMIC SIGNAL: ≦1+, Ann Arbor Stage III, IRC Review
[11] = P65 INTENSITY CYTOPLASMIC SIGNAL: ≧2+, 1 Prior Line of Therapy, IRC Review
[12] = P65 INTENSITY CYTOPLASMIC SIGNAL: ≧2+, ≦65 years old, IRC Review
[13] = PSMB1/A171S: G/G, >1 year since last anti-lymphoma treatment, IRC Review
[14] = PSMB1/A171S: G/G, No Subgroup, IRC Review
[15] = PSMB1/A171S: G/G, ≦65 years old, IRC review
[16] = PSMB1/I208N: T/T, >1 year since last anti-lymphoma treatment, IRC Review
[17] = PSMB1/I208N: T/T, No Subgroup, IRC Review
[18] = PSMB1/I208N: T/T, ≦65 years old, IRC review
[19] = PSMB1/P11A: C/G, European Union, IRC Review
[20] = PSMB1/P11A: C/G, No Subgroup, IRC Review
[21] = PSMB1/P11A: C/G, ≦65 years old, IRC review
[22] = PSMB1/P11A: G/G, ≦65 years old, IRC Review
[23] = PSMB1/P193L: C/C, >1 year since last anti-lymphoma treatment, IRC Review
[24] = PSMB1/P193L: C/C, ≦65 years old, IRC review
[25] = PSMB2/E49X: G/G, >1 year since last anti-lymphoma treatment, IRC Review
[26] = PSMB2/E49X: G/G, ≦65 years old, IRC review
[27] = PSMB2/G187V: G/G, >1 year since last anti-lymphoma treatment, IRC Review
[28] = PSMB2/G187V: G/G, ≦65 years old, IRC review
[29] = PSMB2/L159F: C/C, >1 year since last anti-lymphoma treatment, IRC Review
[30] = PSMB2/L159F: C/C, ≦65 years old, IRC review
[31] = PSMB5/L206M: C/C, >1 year since last anti-lymphoma treatment, IRC Review
[32] = PSMB5/L206M: C/C, ≦65 years old, IRC review
[33] = PSMB5/R24C: C/C, >1 year since last anti-lymphoma treatment, IRC Review
[34] = PSMB5/R24C: C/C, ≦65 years old, IRC review
[35] = PSMB6/A234D: C/C, >1 year since last anti-lymphoma treatment, IRC Review
[36] = PSMB6/A234D: C/C, ≦65 years old, IRC review
[37] = PSMB6/P107A: C/C, >1 year since last anti-lymphoma treatment, IRC Review
[38] = PSMB6/P107A: C/C, ≦65 years old, IRC review
[39] = PSMB8/G8R: G/G, >1 year since last anti-lymphoma treatment, IRC Review
[40] = PSMB8/G8R: G/G, ≦65 years old, IRC review
[41] = PSMB8/R141C: C/C, >1 year since last anti-lymphoma treatment, IRC Review
[42] = PSMB8/R141C: C/C, ≦65 years old, IRC review
[43] = PSMB8/V182M: G/G, >1 year since last anti-lymphoma treatment, IRC review
[44] = PSMB8/V182M: G/G, ≦65 years old, IRC review
[45] = PSMB9/G9E: G/G, >1 year since last anti-lymphoma treatment, IRC review
[46] = PSMB9/G9E: G/G, ≦65 years old, IRC review
[47] = PSMB9/V32I: C/C, >1 year since last anti-lymphoma treatment, IRC review
[48] = PSMB9/V32I: C/C, High Tumor Burden, IRC Review
[49] = PSMB9/V32I: C/C, ≦65 years old, IRC review

Substance: rituximab
- Treatment Free Interval, Median (P27 SIGNAL INTENSITY: ≧2+, Prior Rituximab Therapy, IRC Review): 272
- Treatment Free Interval, Evt/N [1]: 54/79
- Treatment Free Interval, Median [1]: 406
- Treatment Free Interval, Evt/N [2]: 7/9
- Treatment Free Interval, Median [2]: 85
- Treatment Free Interval, Evt/N [3]: 3/3
- Treatment Free Interval, Median [3]: 95
- Treatment Free Interval, Evt/N [4]: 16/21
- Treatment Free Interval, Median [4]: 93
- Treatment Free Interval, Evt/N [5]: 19/29
- Treatment Free Interval, Median [5]: 234
- Treatment Free Interval, Evt/N [6]: 59/89
- Treatment Free Interval, Median [6]: 409
- Treatment Free Interval, Evt/N [7]: 129/204
- Treatment Free Interval, Median [7]: 363
- Treatment Free Interval, Evt/N [8]: 113/179
- Treatment Free Interval, Median [8]: 363
- Treatment Free Interval, Evt/N [9]: 103/154
- Treatment Free Interval, Median [9]: 343
- Treatment Free Interval, Evt/N [10]: 10/11
- Treatment Free Interval, Median [10]: 119
- Treatment Free Interval, Evt/N [11]: 54/85
- Treatment Free Interval, Median [11]: 427
- Treatment Free Interval, Evt/N [12]: 101/152
- Treatment Free Interval, Median [12]: 343
- Treatment Free Interval, Evt/N [13]: 98/165
- Treatment Free Interval, Median [13]: 547
- Treatment Free Interval, Evt/N [14]: 173/276
- Treatment Free Interval, Median [14]: 406
- Treatment Free Interval, Evt/N [15]: 130/198
- Treatment Free Interval, Median [15]: 344
- Treatment Free Interval, Evt/N [16]: 98/165
- Treatment Free Interval, Median [16]: 547
- Treatment Free Interval, Evt/N [17]: 173/276
- Treatment Free Interval, Median [17]: 406
- Treatment Free Interval, Evt/N [18]: 130/198
- Treatment Free Interval, Median [18]: 344
- Treatment Free Interval, Evt/N [19]: 34/49
- Treatment Free Interval, Median [19]: 309
- Treatment Free Interval, Median (PSMB1/P11A: C/G, Female, IRC Review): 406
- Treatment Free Interval, Evt/N [20]: 78/127
- Treatment Free Interval, Median [20]: 409
- Treatment Free Interval, Evt/N [21]: 63/96
- Treatment Free Interval, Median [21]: 406
- Treatment Free Interval, Evt/N [22]: 21/25
- Treatment Free Interval, Median [22]: 269
- Treatment Free Interval, Evt/N [23]: 98/165
- Treatment Free Interval, Median [23]: 547
- Treatment Free Interval, Median (PSMB1/P193L: C/C, No Subgroup, IRC Review): 406
- Treatment Free Interval, Evt/N [24]: 130/198
- Treatment Free Interval, Median [24]: 344
- Treatment Free Interval, Evt/N [25]: 98/165
- Treatment Free Interval, Median [25]: 547
- Treatment Free Interval, Evt/N [26]: 130/198
- Treatment Free Interval, Median [26]: 344
- Treatment Free Interval, Evt/N [27]: 98/165
- Treatment Free Interval, Median [27]: 547
- Treatment Free Interval, Evt/N [28]: 130/198
- Treatment Free Interval, Median [28]: 344
- Treatment Free Interval, Evt/N [29]: 98/165
- Treatment Free Interval, Median [29]: 547
- Treatment Free Interval, Evt/N [30]: 130/198
- Treatment Free Interval, Median [30]: 344
- Treatment Free Interval, Evt/N [31]: 98/165
- Treatment Free Interval, Median [31]: 547
- Treatment Free Interval, Evt/N [32]: 130/198
- Treatment Free Interval, Median [32]: 344
- Treatment Free Interval, Evt/N [33]: 81/137
- Treatment Free Interval, Median [33]: 507
- Treatment Free Interval, Evt/N [34]: 113/170
- Treatment Free Interval, Median [34]: 344
- Treatment Free Interval, Evt/N [35]: 98/165
- Treatment Free Interval, Median [35]: 547
- Treatment Free Interval, Evt/N [36]: 130/198
- Treatment Free Interval, Median [36]: 344
- Treatment Free Interval, Evt/N [37]: 95/159
- Treatment Free Interval, Median [37]: 561
- Treatment Free Interval, Evt/N [38]: 125/189
- Treatment Free Interval, Median [38]: 363
- Treatment Free Interval, Evt/N [39]: 91/155
- Treatment Free Interval, Median [39]: 562
- Treatment Free Interval, Evt/N [40]: 123/189
- Treatment Free Interval, Median [40]: 344
- Treatment Free Interval, Evt/N [41]: 98/165
- Treatment Free Interval, Median [41]: 547
- Treatment Free Interval, Evt/N [42]: 130/198
- Treatment Free Interval, Median [42]: 344
- Treatment Free Interval, Evt/N [43]: 98/165
- Treatment Free Interval, Median [43]: 547
- Treatment Free Interval, Evt/N [44]: 130/198
- Treatment Free Interval, Median [44]: 344
- Treatment Free Interval, Evt/N [45]: 97/163
- Treatment Free Interval, Median [45]: 547
- Treatment Free Interval, Evt/N [46]: 129/196
- Treatment Free Interval, Median [46]: 344
- Treatment Free Interval, Evt/N [47]: 96/160
- Treatment Free Interval, Median [47]: 507
- Treatment Free Interval, Evt/N [48]: 106/142
- Treatment Free Interval, Median [48]: 234
- Treatment Free Interval, Evt/N [49]: 127/192
- Treatment Free Interval, Median [49]: 344

Reference: patent US9322066B2, “Predictors for cancer treatment” (priority 2011, dated 2016)
